Some test systems named below: HCT-15; RPMI-8226; SF-268; MDA-MB-231; SK-OV-3; RXF 393; NCI-H226; MDA-MB-435; NCI/ADR-RES; UACC-257; 786-0; IGROV-1; COLO 205; BT-549; CAKI-1; M14; DU-145; K562; Hs-578T.
Holding throughout (experiment): growth of human tumour cells (NCI), 48 h

“And” between values parts separate entries of the source, which are not always exact repeats. Equal values may be shown once.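 Dose response: 5 concentrations. Exposure: 48 h. Format: 96-well plates. Endpoint: linear interpolation; highest concentration if not reached. GI50 is the concentration that inhibits growth by half.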 The source made the active and inactive calls. Cut-off read from the data, not from the text of the source: active = GI50 up to about 1.1 µM and inactive = higher.

With `Cc1nc(O)c(O)c(CN2CCCCC2)n1`, the GI50 in the test with HCT-15 was more than 100 µM; with RPMI-8226, > 100 µM (inactive); in the test with SF-268 it was > 100 µM (inactive); with MDA-MB-231, > 100 µM (inactive); in the test with SK-OV-3, > 100 µM (inactive); with RXF 393, > 100 µM (inactive). Moreover, the GI50 in the test with NCI-H226, with MDA-MB-435, in the test on NCI/ADR-RES, in the test with UACC-257, in the test on 786-0 and with IGROV-1 was > 100 µM (inactive) in each case. Further, the GI50 in the test with COLO 205, with BT-549, in the test with CAKI-1, in the test on M14, with DU-145 and with K562 was > 100 µM (inactive) in each case. Also, the GI50 in the test with Hs-578T was > 100 µM (inactive).

As to `CCOC(=O)c1c(N2CCCC2)[nH]c(=O)c(C(c2ccc(Cl)c([N+](=O)[O-])c2)c2c(O)c(C(=O)OCC)c(N3CCCC3)[nH]c2=O)c1O`, the GI50 was more than 100 µM in the test on HCT-15; 42.9 µM (inactive) with RPMI-8226; 23 µM (inactive) in the test on SF-268; 22 µM (inactive) in the test with MDA-MB-231; 85.5 µM (inactive) with SK-OV-3; 31.7 µM (inactive) with RXF 393. Moreover, the GI50 in the test with NCI-H226 is 63.5 µM (inactive); in the test on MDA-MB-435, 29.4 µM (inactive); in the test with NCI/ADR-RES, 28.7 µM (inactive); in the test with UACC-257, 41.5 µM (inactive); in the test with 786-0, 27.2 µM (inactive); with COLO 205, > 100 µM (inactive). Besides, the GI50 in the test on BT-549 was 16.3 µM (inactive); in the test with CAKI-1 it was 24.4 µM (inactive); with M14 it was 20.8 µM (inactive); with DU-145 it was 60.8 µM (inactive); with K562, 63.2 µM (inactive); in the test with Hs-578T, 6.55 µM (inactive).

For the molecule `COc1ccc2[nH]cc([C@@H]3C4CCC(C4)[C@H]3NCc3cccc(CN[C@H]4C5CCC(C5)[C@@H]4c4c[nH]c5ccc(OC)cc45)c3)c2c1`, the GI50 with HCT-15 was 0.791 µM and 0.998 µM; in the test with RPMI-8226 it was 531 nM (active) and 369 nM (active); with SF-268, 1.53 µM (inactive) and 1.47 µM (inactive); in the test on MDA-MB-231, 1.44 µM (inactive) and 1.2 µM (inactive); in the test on RXF 393, 1.36 µM (inactive) and 1.66 µM (inactive); in the test on NCI-H226 it was 2.01 µM (inactive) and 1.91 µM (inactive). The GI50 in the test on MDA-MB-435 is 520 nM (active) and 733 nM (active); in the test on NCI/ADR-RES, 1.55 µM (inactive) and 1.68 µM (inactive); in the test on UACC-257, 1.38 µM (inactive) and 1.64 µM (inactive); in the test on 786-0, 731 nM (active) and 708 nM (active); in the test with IGROV-1 it was 1.42 µM (inactive) and 1.58 µM (inactive); with COLO 205, 401 nM (active) and 577 nM (active). Besides, the GI50 in the test on BT-549 is 1.69 µM (inactive) and 1.62 µM (inactive); in the test with CAKI-1, 1.6 µM (inactive) and 1.79 µM (inactive); in the test on M14 it was 640 nM (active) and 600 nM (active); in the test with DU-145, 1.67 µM (inactive) and 1.68 µM (inactive); in the test with K562, 228 nM (active) and 178 nM (active); in the test on Hs-578T it was 1.71 µM (inactive) and 1.5 µM (inactive).

`Clc1ccc(OCc2nnc(CCCCCCCCc3nnc(COc4ccc(Cl)cc4Cl)n3Nc3ccccc3)n2Nc2ccccc2)c(Cl)c1`: the GI50 was 10.9 µM in the test with HCT-15; 2.34 µM (inactive) in the test with RPMI-8226; 14.2 µM (inactive) in the test with SF-268; 8.41 µM (inactive) in the test on MDA-MB-231; 11.5 µM (inactive) in the test with SK-OV-3; 16.3 µM (inactive) in the test on RXF 393. Besides, the GI50 in the test with NCI-H226 was 9.51 µM (inactive); with MDA-MB-435 it was 5.97 µM (inactive); in the test on NCI/ADR-RES, 11.9 µM (inactive); in the test on UACC-257, 10.8 µM (inactive); with 786-0, 15.2 µM (inactive); in the test with IGROV-1, 13 µM (inactive). Further, the GI50 with COLO 205 is 1.5 µM (inactive); in the test on BT-549 it was 17.9 µM (inactive); with CAKI-1, 8.73 µM (inactive); with M14, 11.3 µM (inactive); in the test with DU-145 it was 18.6 µM (inactive); in the test on Hs-578T it was 15.8 µM (inactive).

As to `Cc1ccc2oc(=O)c(C(=O)Nc3nc(C45CC6CC(CC(C6)C4)C5)cs3)cc2c1`, the GI50 with HCT-15 was more than 100 µM; with RPMI-8226 it was > 100 µM (inactive); in the test with SF-268, > 100 µM (inactive); in the test on MDA-MB-231, > 100 µM (inactive); in the test on RXF 393, > 100 µM (inactive); with NCI-H226, > 100 µM (inactive). Also, the GI50 in the test with MDA-MB-435, with NCI/ADR-RES, in the test with UACC-257, in the test with 786-0, in the test with IGROV-1 and in the test with COLO 205 was > 100 µM (inactive) in each case. The GI50 in the test with BT-549, in the test with CAKI-1, in the test on DU-145, in the test with K562 and in the test with Hs-578T was > 100 µM (inactive) throughout.

With `CC(=O)N1CCn2c1nc1cc(Cl)ccc12`, the GI50 in the test with HCT-15 is 35.2 µM; in the test with SF-268, 32.2 µM (inactive); in the test with MDA-MB-231, 34.5 µM (inactive); with SK-OV-3, 25.1 µM (inactive); with RXF 393, 20.8 µM (inactive); in the test on NCI-H226, 94.8 µM (inactive). In addition, the GI50 in the test on MDA-MB-435 was > 100 µM (inactive); in the test on NCI/ADR-RES, > 100 µM (inactive); in the test with UACC-257, > 100 µM (inactive); in the test on 786-0, > 100 µM (inactive); with IGROV-1 it was 37.6 µM (inactive); in the test on COLO 205, > 100 µM (inactive). The GI50 was > 100 µM (inactive) with BT-549; > 100 µM (inactive) in the test on CAKI-1; > 100 µM (inactive) in the test on M14; 33.4 µM (inactive) in the test on DU-145; > 100 µM (inactive) in the test with K562; 31.4 µM (inactive) in the test on Hs-578T.

Turning to `O=C(CSCC(=O)N/N=C/c1ccc2c(c1)OCO2)N/N=C/c1ccc2c(c1)OCO2`, the GI50 in the test on HCT-15 was more than 100 µM; in the test with RPMI-8226, 49.3 µM (inactive); with SF-268 it was > 100 µM (inactive); in the test with MDA-MB-231, > 100 µM (inactive); in the test on SK-OV-3 it was > 100 µM (inactive); in the test on RXF 393, > 100 µM (inactive). Further, the GI50 in the test with NCI-H226 is 40.2 µM (inactive); in the test on MDA-MB-435, 38.3 µM (inactive); in the test on NCI/ADR-RES, > 100 µM (inactive); with UACC-257, 30.3 µM (inactive); in the test on 786-0, > 100 µM (inactive); with IGROV-1, > 100 µM (inactive). Also, the GI50 in the test on BT-549 is > 100 µM (inactive); in the test on CAKI-1 it was > 100 µM (inactive); with M14, 58.9 µM (inactive); in the test on DU-145, > 100 µM (inactive); in the test on K562, 38.3 µM (inactive); with Hs-578T, > 100 µM (inactive).

With `COc1ccc(Nc2nn3c(=O)c4c(C)c(C)sc4nc3s2)cc1`, the GI50 is 44.7 µM in the test with HCT-15; 5.98 µM (inactive) in the test with SF-268; 78.7 µM (inactive) with MDA-MB-231; 26.6 µM (inactive) in the test with SK-OV-3; 19.7 µM (inactive) in the test on RXF 393; 67.8 µM (inactive) in the test with NCI-H226. Further, the GI50 is 34.7 µM (inactive) with MDA-MB-435; 39.1 µM (inactive) in the test on NCI/ADR-RES; 29.9 µM (inactive) in the test with UACC-257; 23.2 µM (inactive) in the test on 786-0; 42.2 µM (inactive) in the test with IGROV-1; > 100 µM (inactive) in the test on COLO 205. For the same molecule, the GI50 is > 100 µM (inactive) with BT-549; 39.3 µM (inactive) in the test on CAKI-1; 61.1 µM (inactive) with M14; 18.1 µM (inactive) in the test on DU-145; > 100 µM (inactive) in the test with K562; 79.1 µM (inactive) in the test on Hs-578T.

For the origin of these results see ChEMBL document CHEMBL1201862, “PubChem BioAssay data set” (2004).
